From patent US10413575B2, “Pharmaceutical composition for preventing or treating inflammatory diseases, containing Lactococcus chungangensis as active ingredient” (CHUNG-ANG UNIVERSITY INDUSTRY-ACADEMIC COOPERATION …, priority 2015, dated 2019)

Legend:
[1] = system: IL-4, IL-5, IL-12, IFN-γ, TNF-α, and TARC; assay: Chemokine and cytokine mRNA expression in skin tissues (reverse transcription PCR); type: in vivo, BALB/c mice and NC/Nga mice; conditions: skin application
Method: After the ending of the treatment of the BALB/c and NC/Nga mice with test materials, the BALB/c and NC/Nga mice of the DNCB-induced atopic control group, the Tacrolimus skin application group, the Lactococcus chungangensis skin application group, and the Lactococcus chungangensis oral administration group were sacrificed. The skin tissues were extracted, and Trizol was added thereto, and the skin tissues were homogenized using a homogenizer until dissolved, and RNA was extracted from the homogenized tissues. Specifically, Trizol was added to the skin tissues extracted from BALB/c mice and NC/Nga mice of each of the control and test groups, and chloroform (CHCl3) was added thereto and mixed. Then, the mixture was allowed to stand for 10 minutes and centrifuged. The centrifuged supernatant was recovered, mixed with the same amount of 2-propanol, allowed to stand for 10 minutes, centrifuged again, washed with 80% EtOH, and dried, to thereby obtain RNA. cDNA was obtained by reverse transcription PCR using AMV reverse transcriptase, dNTP (Promega, Madison, Wis.), EX Taq DNA polymerase (Takara Shuzou, Kyoto, Japan), and the obtained cDNA was used to investigate the mRNA expression levels of atopic-related chemokines and cytokines. Specifically, PCR was performed using the primer pairs described in Table 5 below for chemokines and cytokines IL-4, IL-5, IL-12, IFN-γ, TNF-α, and TARC and control GAPDH, respectively. The PCR was performed for 30 cycles of 1 minute at 94° C., 30 seconds at 95° C., 30 seconds at 55-65° C., and 3 minutes at 70° C.

[2] = system: IL-4, IL-5, IL-12, IFN-γ, TNF-α, and TARC; assay: Chemokine and cytokine protein levels in serum (ELISA); type: in vivo; conditions: BALB/c and NC/Nga, skin application, vs DNCB-induced atopy mice
Source text: Mice were divided into a total of five groups, a non-treatment (normal) group, a DNCB group, a Tacrolimus skin application group, a Lactococcus chungangensis skin application group, and a Lactococcus chungangensis oral administration group. Then, 0.1 g of hair removal cream was applied on the back and neck of BALB/c and NC/Nga mice, respectively, and hairs were removed using soft tissue paper to avoid wounds. After the mice were left for 5 days to heal minor wounds, 1% DNCB 200 (acetone:olive oil=3:1) was applied to the back and ears three times a week for two weeks to induce atopy. After atopy induction, Lactococcus chungangensis was applied to diseased parts at 10^9 cell/mouse twice a week for four weeks, while Lactococcus chungangensis was administered to oral cavity at 10^9 cell/mouse twice a week for four weeks. […] Tacrolimus was applied to atopy diseased parts at 100 mg/kg twice a week for four weeks.
In addition, the protein level changes of IL-4, IL-5, IL-12, IFN-γ, TNF-α, and TARC in the serum isolated from the blood taken from the heart of each of BALB/c mice and NC/Nga mice were measured using IL-4 Quantikine Immunoassay Kit, IL-5 Quantikine Immunoassay Kit, IL-12 Quantikine Immunoassay Kit, TNF-α Quantikine Immunoassay Kit, CCL17/TARC Quantikine Immunoassay Kit (R&D Systems, Minneapolis, Minn., USA), respectively, and the absorbance was determined at 450 nm by using a microplate reader.

[3] = system: DNCB-induced atopic BALB/c mice; assay: Visual evaluation of DNCB-induced atopic BALB/c mice; type: in vivo; set-up: key to dryness/scarring / edema / erosion/excoriation / erythema/hemorrhage: 0=absence; 1=mild; 2=moderate; 3=severe; key to Total severity score / Mean severity score: sum of 4 signs each 0=absence to 3=severe; conditions: skin application
Source text: (§1) Mice were divided into a total of five groups, a non-treatment (normal) group, a DNCB group, a Tacrolimus skin application group, a Lactococcus chungangensis skin application group, and a Lactococcus chungangensis oral administration group. Then, 0.1 g of hair removal cream was applied on the back and neck of BALB/c and NC/Nga mice, respectively, and hairs were removed using soft tissue paper to avoid wounds. After the mice were left for 5 days to heal minor wounds, 1% DNCB 200 (acetone:olive oil=3:1) was applied to the back and ears three times a week for two weeks to induce atopy. After atopy induction, Lactococcus chungangensis was applied to diseased parts at 10^9 cell/mouse twice a week for four weeks, while Lactococcus chungangensis was administered to oral cavity at 10^9 cell/mouse twice a week for four weeks. For efficacy comparison, Tacrolimus in use as an atopy medicine was used. Tacrolimus was applied to atopy diseased parts at 100 mg/kg twice a week for four weeks. Visual evaluation was conducted to determine a treatment effect in each of a Tacrolimus skin application group, a Lactococcus chungangensis skin application group, and a Lactococcus chungangensis oral administration group. Visual evaluation was conducted by evaluating the skin condition in four stages (0=absence, 1=mild, 2=moderate, 3=severe) according to the severity of erythema/hemorrhage, dryness/scarring, edema, and erosion/excoriation as evaluation indexes. A severity score of about 12 point or more was determined that the atopy symptoms reach the highest peak. The results are shown in Tables 1 to 5 for BALB/c mice, and Tables 6 to 10 for NC/Nga mice.

IgE [4] = assay: Immunoglobulin IgE measurement in serum (ELISA), NC/Nga mice; type: in vivo; conditions: skin application
Method: (§2) After the ending of the treatment with test materials, BALB/c and NC/Nga mice of the five groups were sacrificed, and blood was collected from the heart. Serum was isolated from the blood to measure IgE. […] Absorbance was measured at 450 nm using a microplate reader to determine IgE protein level.

[5] = system: DNCB-induced atopic NC/Nga mice; assay: Visual evaluation of DNCB-induced atopic NC/Nga mice; type: in vivo; set-up: key to dryness/scarring / edema / erosion/excoriation / erythema/hemorrhage: 0=absence; 1=mild; 2=moderate; 3=severe; key to Total severity score / Mean severity score: sum of 4 signs each 0=absence to 3=severe; conditions: skin application
Source text: as §1

[6] = system: DNCB-induced atopic BALB/c mice and NC/Nga mice; assay: Histopathological test (H&E) of dorsal skin tissue and ears; type: in vivo; conditions: skin application, vs DNCB-induced atopic mice
Source text: Mice were divided into a total of five groups, a non-treatment (normal) group, a DNCB group, a Tacrolimus skin application group, a Lactococcus chungangensis skin application group, and a Lactococcus chungangensis oral administration group. Then, 0.1 g of hair removal cream was applied on the back and neck of BALB/c and NC/Nga mice, respectively, and hairs were removed using soft tissue paper to avoid wounds. After the mice were left for 5 days to heal minor wounds, 1% DNCB 200 (acetone:olive oil=3:1) was applied to the back and ears three times a week for two weeks to induce atopy. After atopy induction, Lactococcus chungangensis was applied to diseased parts at 10^9 cell/mouse twice a week for four weeks, while Lactococcus chungangensis was administered to oral cavity at 10^9 cell/mouse twice a week for four weeks. For efficacy comparison, Tacrolimus in use as an atopy medicine was used. Tacrolimus was applied to atopy diseased parts at 100 mg/kg twice a week for four weeks.
After the treatment of test materials, the dorsal skin tissue (1.5×1.5 cm) and ears of BALB/c mice and NC/Nga mice of the test and control groups were taken off, and fixed in 10% paraformaldehyde for 24 hours. The tissues were sufficiently hardened in paraffin, and sliced into five pieces to prepare slide glasses. […]

IgE [7] = assay: Immunoglobulin IgE measurement in serum (ELISA), BALB/c mice; type: in vivo; conditions: skin application, compared with the DNCB-induced group
Method: as §2

`C=CC[C@@H]1/C=C(\C)C[C@H](C)C[C@H](OC)[C@H]2O[C@@](O)(C(=O)C(=O)N3CCCC[C@H]3C(=O)O[C@H](/C(C)=C/[C@@H]3CC[C@@H](O)[C@H](OC)C3)[C@H](C)[C@@H](O)CC1=O)[C@H](C)C[C@@H]2OC` [Tacrolimus] was tested, and the “mRNA expression level of IFN-γ” value [1] was “reduced”, the “mRNA expression level of IL-4” value [1] was “reduced” and the “mRNA expression level of IL-5” value [1] was “reduced”. For the same compound, the “mRNA expression level of IL-12” value [1] was “reduced”, the “mRNA expression level of TARC” value [1] was “reduced” and the “mRNA expression level of TNF-α” value [1] was “reduced”. For the same compound, the “protein level of IFN-γ” value [2] was “significantly reduced”, the “protein level of IL-4” value [2] was “significantly reduced” and the “protein level of IL-5” value [2] was “significantly reduced”. The “protein level of IL-12” value [2] was “significantly reduced”, the “protein level of TARC” value [2] was “significantly reduced” and the “protein level of TNF-α” value [2] was “significantly reduced”. For the same compound, the “skin condition observed by the naked eye” value [3] was “remarkably improved”, the Mean severity score ([3]; 1 Week) was 5 and the Total severity score ([3]; 1 Week, evaluation 1) was 4. For the same compound, the dryness/scarring ([3]; 1 Week, evaluation 1) was 1, the edema ([3]; 1 Week, evaluation 1) was 0 and the erosion/excoriation ([3]; 1 Week, evaluation 1) was 1. For the same compound, the erythema/hemorrhage ([3]; 1 Week, evaluation 1) was 2, the Total severity score ([3]; 1 Week, evaluation 2) was 6 and the dryness/scarring ([3]; 1 Week, evaluation 2) was 1. It also gave an edema ([3]; 1 Week, evaluation 2) of 1, an erosion/excoriation ([3]; 1 Week, evaluation 2) of 2 and an erythema/hemorrhage ([3]; 1 Week, evaluation 2) of 2. It also gave a Mean severity score ([3]; 2 Weeks) of 8, a Total severity score ([3]; 2 Weeks, evaluation 3) of 8 and a dryness/scarring ([3]; 2 Weeks, evaluation 3) of 2. It also gave an edema ([3]; 2 Weeks, evaluation 3) of 2, an erosion/excoriation ([3]; 2 Weeks, evaluation 3) of 2 and an erythema/hemorrhage ([3]; 2 Weeks, evaluation 3) of 2. The Total severity score ([3]; 2 Weeks, evaluation 4) was 8, the dryness/scarring ([3]; 2 Weeks, evaluation 4) was 2 and the edema ([3]; 2 Weeks, evaluation 4) was 2. For the same compound, the erosion/excoriation ([3]; 2 Weeks, evaluation 4) was 2, the erythema/hemorrhage ([3]; 2 Weeks, evaluation 4) was 2 and the Mean severity score ([3]; 3 Weeks) was 10.5. For the same compound, the Total severity score ([3]; 3 Weeks, evaluation 5) was 11, the dryness/scarring ([3]; 3 Weeks, evaluation 5) was 2 and the edema ([3]; 3 Weeks, evaluation 5) was 3. The erosion/excoriation ([3]; 3 Weeks, evaluation 5) was 3, the erythema/hemorrhage ([3]; 3 Weeks, evaluation 5) was 3 and the Total severity score ([3]; 3 Weeks, evaluation 6) was 10. It also gave a dryness/scarring ([3]; 3 Weeks, evaluation 6) of 2, an edema ([3]; 3 Weeks, evaluation 6) of 2 and an erosion/excoriation ([3]; 3 Weeks, evaluation 6) of 3. It also gave an erythema/hemorrhage ([3]; 3 Weeks, evaluation 6) of 3, a Mean severity score ([3]; 4 Weeks) of 9.5 and a Total severity score ([3]; 4 Weeks, evaluation 7) of 10. The dryness/scarring ([3]; 4 Weeks, evaluation 7) was 3, the edema ([3]; 4 Weeks, evaluation 7) was 2 and the erosion/excoriation ([3]; 4 Weeks, evaluation 7) was 3. It also gave an erythema/hemorrhage ([3]; 4 Weeks, evaluation 7) of 3, a Total severity score ([3]; 4 Weeks, evaluation 8) of 9 and a dryness/scarring ([3]; 4 Weeks, evaluation 8) of 1. For the same compound, the edema ([3]; 4 Weeks, evaluation 8) was 2, the erosion/excoriation ([3]; 4 Weeks, evaluation 8) was 3 and the erythema/hemorrhage ([3]; 4 Weeks, evaluation 8) was 3. The Mean severity score ([3]; 5 Weeks) was 6, the Total severity score ([3]; 5 Weeks, evaluation 9) was 7 and the dryness/scarring ([3]; 5 Weeks, evaluation 9) was 2. For the same compound, the edema ([3]; 5 Weeks, evaluation 9) was 2, the erosion/excoriation ([3]; 5 Weeks, evaluation 9) was 1 and the erythema/hemorrhage ([3]; 5 Weeks, evaluation 9) was 2. It also gave a Total severity score ([3]; 5 Weeks, evaluation 10) of 5, a dryness/scarring ([3]; 5 Weeks, evaluation 10) of 2 and an edema ([3]; 5 Weeks, evaluation 10) of 1. For the same compound, the erosion/excoriation ([3]; 5 Weeks, evaluation 10) was 1, the erythema/hemorrhage ([3]; 5 Weeks, evaluation 10) was 1 and the Mean severity score ([3]; 6 Weeks) was 2.5. It also gave a Total severity score ([3]; 6 Weeks, evaluation 11) of 4, a dryness/scarring ([3]; 6 Weeks, evaluation 11) of 1 and an edema ([3]; 6 Weeks, evaluation 11) of 1. For the same compound, the erosion/excoriation ([3]; 6 Weeks, evaluation 11) was 1, the erythema/hemorrhage ([3]; 6 Weeks, evaluation 11) was 1 and the Total severity score ([3]; 6 Weeks, evaluation 12) was 1. It also gave a dryness/scarring ([3]; 6 Weeks, evaluation 12) of 1, an edema ([3]; 6 Weeks, evaluation 12) of 0 and an erosion/excoriation ([3]; 6 Weeks, evaluation 12) of 0. The erythema/hemorrhage ([3]; 6 Weeks, evaluation 12) was 0, the “inhibition of IgE production” value (IgE [4]) was 62% and the Mean severity score ([5]; 1 Week) was 5.5. It also gave a Total severity score ([5]; 1 Week, evaluation 1) of 5, a dryness/scarring ([5]; 1 Week, evaluation 1) of 2 and an edema ([5]; 1 Week, evaluation 1) of 1. It also gave an erosion/excoriation ([5]; 1 Week, evaluation 1) of 1, an erythema/hemorrhage ([5]; 1 Week, evaluation 1) of 1 and a Total severity score ([5]; 1 Week, evaluation 2) of 6. For the same compound, the dryness/scarring ([5]; 1 Week, evaluation 2) was 2, the edema ([5]; 1 Week, evaluation 2) was 1 and the erosion/excoriation ([5]; 1 Week, evaluation 2) was 2. For the same compound, the erythema/hemorrhage ([5]; 1 Week, evaluation 2) was 1, the Mean severity score ([5]; 2 Weeks) was 10.5 and the Total severity score ([5]; 2 Weeks, evaluation 3) was 11. For the same compound, the dryness/scarring ([5]; 2 Weeks, evaluation 3) was 3, the edema ([5]; 2 Weeks, evaluation 3) was 3 and the erosion/excoriation ([5]; 2 Weeks, evaluation 3) was 2. The erythema/hemorrhage ([5]; 2 Weeks, evaluation 3) was 3, the Total severity score ([5]; 2 Weeks, evaluation 4) was 10 and the dryness/scarring ([5]; 2 Weeks, evaluation 4) was 3. For the same compound, the edema ([5]; 2 Weeks, evaluation 4) was 2, the erosion/excoriation ([5]; 2 Weeks, evaluation 4) was 2 and the erythema/hemorrhage ([5]; 2 Weeks, evaluation 4) was 3. For the same compound, the Mean severity score ([5]; 3 Weeks) was 11.5, the Total severity score ([5]; 3 Weeks, evaluation 5) was 12 and the dryness/scarring ([5]; 3 Weeks, evaluation 5) was 3. The edema ([5]; 3 Weeks, evaluation 5) was 3, the erosion/excoriation ([5]; 3 Weeks, evaluation 5) was 3 and the erythema/hemorrhage ([5]; 3 Weeks, evaluation 5) was 3. It also gave a Total severity score ([5]; 3 Weeks, evaluation 6) of 11, a dryness/scarring ([5]; 3 Weeks, evaluation 6) of 3 and an edema ([5]; 3 Weeks, evaluation 6) of 2. The erosion/excoriation ([5]; 3 Weeks, evaluation 6) was 3, the erythema/hemorrhage ([5]; 3 Weeks, evaluation 6) was 3 and the Mean severity score ([5]; 4 Weeks) was 11.5. For the same compound, the Total severity score ([5]; 4 Weeks, evaluation 7) was 12, the dryness/scarring ([5]; 4 Weeks, evaluation 7) was 3 and the edema ([5]; 4 Weeks, evaluation 7) was 3. The erosion/excoriation ([5]; 4 Weeks, evaluation 7) was 3, the erythema/hemorrhage ([5]; 4 Weeks, evaluation 7) was 3 and the Total severity score ([5]; 4 Weeks, evaluation 8) was 11. For the same compound, the dryness/scarring ([5]; 4 Weeks, evaluation 8) was 3, the edema ([5]; 4 Weeks, evaluation 8) was 3 and the erosion/excoriation ([5]; 4 Weeks, evaluation 8) was 2. For the same compound, the erythema/hemorrhage ([5]; 4 Weeks, evaluation 8) was 3, the Mean severity score ([5]; 5 Weeks) was 11 and the Total severity score ([5]; 5 Weeks, evaluation 9) was 11. The dryness/scarring ([5]; 5 Weeks, evaluation 9) was 3, the edema ([5]; 5 Weeks, evaluation 9) was 2 and the erosion/excoriation ([5]; 5 Weeks, evaluation 9) was 3. It also gave an erythema/hemorrhage ([5]; 5 Weeks, evaluation 9) of 3, a Total severity score ([5]; 5 Weeks, evaluation 10) of 11 and a dryness/scarring ([5]; 5 Weeks, evaluation 10) of 3. For the same compound, the edema ([5]; 5 Weeks, evaluation 10) was 3, the erosion/excoriation ([5]; 5 Weeks, evaluation 10) was 2 and the erythema/hemorrhage ([5]; 5 Weeks, evaluation 10) was 3. It also gave a Mean severity score ([5]; 6 Weeks) of 9, a Total severity score ([5]; 6 Weeks, evaluation 11) of 10 and a dryness/scarring ([5]; 6 Weeks, evaluation 11) of 3. The edema ([5]; 6 Weeks, evaluation 11) was 2, the erosion/excoriation ([5]; 6 Weeks, evaluation 11) was 2 and the erythema/hemorrhage ([5]; 6 Weeks, evaluation 11) was 3. For the same compound, the Total severity score ([5]; 6 Weeks, evaluation 12) was 8, the dryness/scarring ([5]; 6 Weeks, evaluation 12) was 2 and the edema ([5]; 6 Weeks, evaluation 12) was 2. The erosion/excoriation ([5]; 6 Weeks, evaluation 12) was 2, the erythema/hemorrhage ([5]; 6 Weeks, evaluation 12) was 2 and the “dead skin cell exfoliation, epidermal hypertrophy, and hyperkeratosis” value [6] was “significantly reduced”. The “inhibition of IgE production” value (IgE [7]) was 48%.
